Laboratory results published in DBAASP.
Values after ≈ are worked out from the molar mass of the structure shown.

Legend:
Experiment in all cases: ≥ marks a high value that may be exact or a test limit, other limits are often not marked, values filed in µg/mL are converted to µM
[1] = system: Bacillus subtilis PS832
[2] = system: Staphylococcus epidermidis ATCC 12228
[3] = system: Klebsiella aerogenes ATCC 13048
[4] = system: Escherichia coli DL7
[5] = system: Staphylococcus aureus BCRC 10780
[6] = system: Vibrio harveyi BCRC 13812
[7] = system: Streptococcus agalactiae
[8] = system: Vibrio alginolyticus
[9] = system: Staphylococcus sp. BCRC 10451
[10] = system: Staphylococcus aureus K52
[11] = system: Enterococcus faecium
[12] = system: Staphylococcus aureus ATCC 25923
[13] = system: Enterococcus faecalis ATCC 29212
[14] = system: Staphylococcus aureus K35
[15] = system: Pseudomonas aeruginosa ATCC 21630
[16] = system: Pseudomonas aeruginosa ATCC 21625
[17] = system: Pseudomonas aeruginosa LCCE
[18] = system: Salmonella enterica subsp. enterica serovar Typhimurium C77-31
[19] = system: Pseudomonas aeruginosa LC
[20] = system: Escherichia coli ATCC 25922
[21] = system: Pseudomonas aeruginosa LCGE
[22] = system: Pseudomonas aeruginosa ATCC 27853
[23] = system: Staphylococcus aureus ATCC 29213
[24] = system: Pseudomonas aeruginosa ATCC 10419
[25] = system: Pseudomonas aeruginosa LCCI
[26] = system: Staphylococcus aureus ATCC 25023
[27] = system: Proteus mirabilis CICC 22931
[28] = system: Klebsiella pneumoniae subsp. pneumoniae CGMCC 1.176
[29] = system: Staphylococcus aureus AS1.72
[30] = system: Escherichia coli AS1.349
[31] = system: Enterococcus faecalis CGMCC 1.595
[32] = system: Pseudomonas aeruginosa CGMCC 1.860
[33] = system: Klebsiella aerogenes CGMCC 1.876
[34] = system: Lactococcus lactis AS1.1690
[35] = system: Acinetobacter baumannii CICC 22934
[36] = system: Enterobacter cloacae CGMCC 1.58
[37] = system: Bacillus cereus AS1.126
[38] = system: Enterococcus faecium CGMCC 1.2334
[39] = system: Staphylococcus aureus MRSA-G
[40] = system: Staphylococcus aureus MRSA-16
[41] = system: Escherichia coli BL21AI
[42] = system: Micrococcus luteus DSM 1790
[43] = system: Micrococcus luteus ATCC 10240
[44] = system: Bacillus subtilis DSM 347
[45] = system: Escherichia coli DSM 10233

## CC(C)C[C@H](NC(=O)CNC(=O)[C@H](C)NC(=O)[C@H](CCCN=C(N)N)NC(=O)[C@H](Cc1cnc[nH]1)NC(=O)[C@H](C)NC(=O)[C@@H](N)CC(=O)O)C(=O)N[C@@H](CCC(N)=O)C(=O)N[C@@H](Cc1ccccc1)C(=O)N1CCC[C@H]1C(=O)N[C@H](C(=O)NCC(=O)N[C@@H](CCCN=C(N)N)C(=O)N[C@H](C(=O)N[C@@H](Cc1cnc[nH]1)C(=O)N[C@@H](CCCN=C(N)N)C(=O)N[C@@H](CC(C)C)C(=O)N[C@@H](CC(C)C)C(=O)N[C@@H](CCCN=C(N)N)C(=O)N[C@@H](CCCCN)C(N)=O)C(C)C)C(C)C [DAHRAGLQFPVGRVHRLLRK]
[1]
  MIC: 2 µM (≈ 4.65 µg/mL)
[2]
  MIC: 4 µM (≈ 9.3 µg/mL)
[3]
  MIC: ≥ 32 µM
[4]
  MIC: 16 µM (≈ 37.2 µg/mL)

## CC[C@H](C)[C@H](NC(=O)[C@H](Cc1ccccc1)NC(C)=O)C(=O)N[C@@H](Cc1ccccc1)C(=O)N[C@@H](Cc1cnc[nH]1)C(=O)N[C@H](C(=O)N[C@H](C(=O)N[C@@H](CCCCN)C(=O)NCC(=O)N[C@@H](CC(C)C)C(=O)N[C@@H](Cc1ccccc1)C(=O)N[C@@H](Cc1cnc[nH]1)C(N)=O)[C@@H](C)CC)[C@@H](C)CC [FIFHIIKGLFH]
[5]
  MIC: 4.56 µM (≈ 6.44 µg/mL)
[6]
  MIC: 4.56 µM (≈ 6.44 µg/mL)
[7]
  MIC: ≥ 72.9 µM
[8]
  MIC: 4.56 µM (≈ 6.44 µg/mL)
[9]
  MIC: ≥ 72.9 µM

## CC[C@H](C)[C@H](NC(=O)CNC(=O)[C@H](CO)NC(=O)[C@H](CC(C)C)NC(=O)[C@@H](NC(=O)[C@H](CCCN=C(N)N)NC(=O)CNC(=O)[C@@H](NC(=O)[C@H](CC(C)C)NC(=O)[C@@H]1CCCN1C(=O)[C@H](CC(C)C)NC(=O)[C@@H](N)CCCCN)[C@@H](C)CC)C(C)C)C(=O)N[C@@H](CC(C)C)C(N)=O [KLPLIGRVLSGIL]
[10]
  MIC: ≥ 58.2 µM
[11]
  MIC: ≥ 116 µM
[12]
  MIC: 83.7 µM (≈ 115 µg/mL)
[13]
  MIC: > 168 µM
[14]
  MIC: ≥ 58.2 µM

## CC[C@H](C)[C@H](NC(=O)[C@H](CCCCN)NC(=O)[C@H](CCCCN)NC(=O)[C@H](CC(C)C)NC(=O)[C@H](CCCN=C(N)N)NC(=O)[C@H](CCCCN)NC(=O)[C@H](CCCN=C(N)N)NC(=O)[C@H](CCCCN)NC(=O)[C@H](CCCCN)NC(=O)[C@H](CCCCN)NC(=O)[C@H](CCCN=C(N)N)NC(=O)[C@H](CC(C)C)NC(=O)[C@H](CCCN=C(N)N)NC(=O)[C@H](CCCN=C(N)N)NC(=O)[C@H](Cc1ccccc1)NC(=O)[C@@H](N)CCCN=C(N)N)C(N)=O [RFRRLRKKKRKRLKKI]
[15]
  MIC: ≥ 256 µM
[16]
  MIC: ≥ 256 µM
[17]
  MIC: ≥ 256 µM
[18]
  MIC: ≥ 256 µM
[19]
  MIC: ≥ 256 µM
[20]
  MIC: 128 µM (≈ 283 µg/mL)
[2]
  MIC: 128 µM (≈ 283 µg/mL)
[21]
  MIC: ≥ 256 µM
[22]
  MIC: 128 µM (≈ 283 µg/mL)
[23]
  MIC: 128 µM (≈ 283 µg/mL)
[24]
  MIC: ≥ 256 µM
[25]
  MIC: ≥ 256 µM

## CC(C)C[C@H](NC(=O)[C@H](CCCN=C(N)N)NC(=O)[C@H](CC(C)C)NC(=O)[C@H](CC(C)C)NC(=O)[C@H](CC(C)C)NC(=O)[C@H](CC(C)C)NC(=O)[C@H](CCCCN)NC(=O)[C@H](CC(C)C)NC(=O)[C@@H](N)CCCN=C(N)N)C(N)=O [RLKLLLLRL]
[26]
  MIC: 14.1 µM (≈ 16 µg/mL)

## CC(C)C[C@H](NC(=O)[C@H](CC(C)C)NC(=O)[C@H](Cc1ccccc1)NC(=O)[C@H](CCCN=C(N)N)NC(=O)[C@H](CCCN=C(N)N)NC(=O)[C@H](CC(C)C)NC(=O)[C@H](Cc1cnc[nH]1)NC(=O)[C@H](CCCN=C(N)N)NC(=O)[C@H](CC(C)C)NC(=O)[C@@H](NC(=O)[C@H](C)NC(=O)[C@@H](N)CO)C(C)C)C(=O)N[C@@H](CCCN=C(N)N)C(=O)N[C@@H](CCCCN)C(=O)N[C@@H](Cc1cnc[nH]1)C(=O)N[C@@H](CCCN=C(N)N)C(=O)N[C@@H](CCCCN)C(=O)N[C@@H](Cc1cnc[nH]1)C(=O)O [SAVLRHLRRFLLRKHRKH]
[27]
  MIC: ≥ 100 µM
[28]
  MIC: ≥ 100 µM
[29]
  MIC: 1.56 µM (≈ 3.63 µg/mL)
[30]
  MIC: ≥ 100 µM
[31]
  MIC: 3.13 µM (≈ 7.27 µg/mL)
[32]
  MIC: ≥ 100 µM
[33]
  MIC: ≥ 100 µM
[34]
  MIC: 4.69 µM (≈ 10.9 µg/mL)
[35]
  MIC: ≥ 100 µM
[36]
  MIC: ≥ 100 µM
[37]
  MIC: 1.56 µM (≈ 3.63 µg/mL)
[38]
  MIC: 3.13 µM (≈ 7.27 µg/mL)

## CC[C@H](C)[C@H](NC(=O)[C@H](C)NC(=O)[C@H](CCCCN)NC(=O)[C@@H](NC(=O)CNC(=O)CNC(=O)[C@H](Cc1c[nH]c2ccccc12)NC(=O)[C@H](Cc1ccccc1)NC(=O)[C@H](CCCCN)NC(=O)[C@H](CCCCN)NC(=O)[C@H](Cc1ccccc1)NC(=O)[C@@H](N)CO)C(C)C)C(=O)N[C@@H](Cc1ccccc1)C(=O)N[C@@H](CCCCN)C(=O)NCC(=O)N[C@@H](C)C(=O)N[C@@H](CCCN=C(N)N)C(=O)N[C@@H](CCCCN)C(=O)NCC(=O)N[C@@H](Cc1c[nH]c2ccccc12)C(=O)N[C@@H](CCCCN)C(=O)O [SFKKFWGGVKAIFKGARKGWK]
[39]
  MIC: ≥ 32 µM
[20]
  MIC: 1 µM (≈ 2.43 µg/mL)
[40]
  MIC: ≥ 32 µM

## CC[C@H](C)[C@H](NC(=O)[C@H](CCCN=C(N)N)NC(=O)[C@H](CCCN=C(N)N)NC(=O)[C@@H]1CCCN1C(=O)[C@@H]1CCCN1C(=O)[C@H](CCCN=C(N)N)NC(=O)[C@@H]1CCCN1C(=O)[C@H](CCCN=C(N)N)NC(=O)[C@@H]1CCCN1C(=O)[C@H](CC(C)C)NC(=O)[C@H](Cc1ccc(O)cc1)NC(=O)[C@@H]1CCCN1C(=O)[C@@H]1CCCN1C(=O)[C@H](CCCCN)NC(=O)[C@H](CC(=O)O)NC(=O)[C@@H](N)C(C)C)C(=O)N[C@@H](Cc1ccc(O)cc1)C(=O)N[C@@H](CC(N)=O)C(=O)O [VDKPPYLPRPRPPRRIYN]
[41]
  MIC: 28.6 µM (≈ 64 µg/mL)
[42]
  MIC: 6.98 µM (≈ 15.6 µg/mL)
[43]
  MIC: ≥ 57.3 µM
[44]
  MIC: ≥ 55.9 µM
[45]
  MIC: ≥ 55.9 µM
